Here are results for 7 compounds from patent US3960949A, “1,2-Biguanides” (Schering Aktiengesellschaft, priority 1971, dated 1976).

One series is described as follows: in vivo. As to conditions: mouse, po. As to the method:
Five days after administration of the substance, the number of surviving animals was determined. […] The LD50 values were in each case based on the free base.
For orientation: LD50 means the dose expected to kill half of the subjects tested. A high value points to lower toxicity. `CCCCN/C(=N\CC)NC(=N)N` [1-Ethyl-2-n-butylbiguanide]: the LD50 at 120 h was above 2000 mg/kg.

As to `CCCN=C(NC)NC(=N)N.Cl` [1-Methyl-2-n-propylbiguanide, 1-Methyl-2-n-propylbiguanide Hydrochloride], the LD50 at 120 h is above 2000 mg/kg.

`Br.CC(C)N=C(NC(=N)N)NC(C)C` [1,2-Diisopropylbiguanide, 1,2-Diisopropylbiguanide Hydrobromide] displayed a 50% lethal dose (LD50) at 120 h above 2000 mg/kg.

As for `CN/C(=N\CCc1ccccc1)NC(=N)N` [1-Methyl-2-β-phenethylbiguanide, 2-Methyl-1-β-phenethylbiguanide Nitrate], the LD50 at 120 h was 2830 mg/kg.

`CCN=C(NC(=N)N)N(CC)CC.O=[N+]([O-])O` [1,1,2-Triethylbiguanide, 1,1,2-Triethylbiguanide Nitrate]: the LD50 at 120 h was above 2000 mg/kg.

Assay in a further series: not given
As to conditions: in vivo; cited from earlier work.
For the compound `CCCCNC(=N)NC(=N)N` [1-Butylbiguanide, 1-butylbiguanide], the gastrointestinal compatibility result is on record as “gastrointestinal incompatibility”.

On to `[H]/N=C(/N)N/C(=N/[H])NCCc1ccccc1` [Phenformin, 1-β-phenethylbiguanide], for which the gastrointestinal compatibility result is given as “gastrointestinal incompatibility”.
